The text below walks through data of PubChem BioAssay (NCI).

What all share (assay): inhibition of tumour cell growth, NCI panel, 48 h
The subject of assay [1] is 786-0 renal.
The test system of assay [2] is A549 NSCLC.
The test system of assay [3] is HOP-62 NSCLC.
The subject of assay [4] is IGROV1 ovarian.
Assay [5] deals with K-562 leukemia.
For assay [6], the system named is OVCAR-3 ovarian.
Assay [7] deals with SN12C renal.
Assay [8] relates to UACC-257 melanoma.
Assay [9] concerns UO-31 renal.
Assay [10] relates to SF-539 CNS.

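Briefly, cells in 96-well plates were exposed to five compound concentrations for 48 h, and endpoints were estimated by linear interpolation. GI50 marks 50% less growth. The concentration for full growth arrest is given as TGI.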

On to `COc1cc(Nc2nc3cc(N)cc(N)c3nc2-c2ccccc2)cc(OC)c1`, for which the GI50 is 17.7 µM in assay [1]; 20.1 µM in [2]; 19.6 µM in [3]; 2.7 µM in assay [4]; 27.5 µM in assay [5]; 3.9 µM in assay [6]. In addition, the GI50 in [7] was 8.62 µM; in [8], 15.9 µM; in [9], 8.87 µM. The TGI in assay [1] was 50.8 µM; in assay [2], > 100 µM; in assay [3], 53.8 µM; in assay [4] it was 17.1 µM; in assay [5], > 100 µM; in [6] it was 20.1 µM. Also, the TGI in assay [7] was > 100 µM; in [8], 48 µM; in assay [9], 45 µM.

For the compound `[Cl][Bi]([O]c1ccccn1)[O]c1ccccn1`, the GI50 in assay [1], in assay [2], in [4], in [6], in [10] and in assay [7] was > 100 µM each time. Besides, the GI50 in [8] and in assay [9] was > 100 µM in each case. Also, the TGI in [1], in [2], in assay [4], in assay [6], in assay [10] and in assay [7] was > 100 µM throughout. For the same compound, the TGI in assay [8] and in [9] was > 100 µM throughout.

As to `CCCCn1c2cc(OCc3cn(-c4ccc(Cl)cc4)nn3)ccc2c2ccnc(C)c21`, the GI50 in assay [1] was 5.76 µM; in assay [2], 8 µM; in [4] it was 9.02 µM; in assay [5], 2.89 µM; in assay [6], 6.41 µM; in assay [10] it was 5.11 µM. Besides, the GI50 was 8.16 µM in [7], 5.83 µM in assay [8] and 4.32 µM in [9]. Besides, the TGI in assay [1] is 11 µM; in assay [2], > 33.3 µM; in assay [4], > 33.3 µM; in [5], > 33.3 µM; in assay [6], 18.2 µM; in assay [10] it was 10.3 µM. Besides, the TGI in [7] was > 33.3 µM; in [8], 11.1 µM; in assay [9] it was 10 µM.

As for `O=Cc1c(-c2cc(O)ccc2O)nc2sccn12`, the GI50 in assay [1] was 3.83 µM; in assay [2], 25.7 µM; in [3], 10.4 µM; in [4], 9.04 µM; in [6], 1.6 µM; in [10], 20.3 µM. Besides, the GI50 in assay [7] was 12.8 µM; in [8] it was 29.9 µM; in assay [9] it was 1.05 µM. In addition, the TGI in assay [1] was 15.9 µM; in [2], > 100 µM; in assay [3] it was 26.4 µM; in assay [4], 29.5 µM; in [6], 6.47 µM; in assay [10], 52 µM. Besides, the TGI came to 34.5 µM in [7], 95.8 µM in [8] and 2.38 µM in assay [9].

As for `C1CC[N-]CC1.C1CC[N-]CC1.C1CC[N-]CC1.C1CC[N-]CC1.[Cl][Rh][Cl]`, the GI50 is 41.4 µM in assay [1]; 3.12 µM in assay [2]; 4.41 µM in assay [3]; 7.85 µM in assay [4]; 10.6 µM in [6]; 5.15 µM in [10]. Further, the GI50 is 1.4 µM in [7], 3.21 µM in assay [8] and 34.4 µM in [9]. For the same compound, the TGI in assay [1] is > 100 µM; in [2] it was > 100 µM; in assay [3], > 100 µM; in [4], 76.8 µM; in assay [6], 41.3 µM; in assay [10], > 100 µM. Also, the TGI in assay [7] was > 100 µM; in assay [8], 69.4 µM; in assay [9], > 100 µM.

Regarding `Cc1c(/C=N/NS(=O)(=O)c2ccccc2)no[n+]1[O-]`, the TGI in assay [1], in assay [2], in [4], in [5], in assay [6] and in [10] was > 100 µM in each case. For the same compound, the figures for the TGI in assay [7] and in [9] were > 100 µM and 49.6 µM, respectively.

In the case of `Oc1ccc(Cc2ccc(O)c3ncccc23)c2cccnc12`, the GI50 is 0.193 µM in [1]; 0.0371 µM in assay [2]; 0.0442 µM in assay [3]; 0.0776 µM in assay [4]; 0.0425 µM in assay [5]; 0.138 µM in [6]. The GI50 in assay [7] is 0.0361 µM; in assay [8], 0.236 µM; in assay [9] it was 0.0322 µM. Besides, the TGI is > 100 µM in assay [1]; 73.9 µM in assay [2]; 1.09 µM in [3]; > 100 µM in assay [4]; > 100 µM in [5]; > 100 µM in assay [6]. For the same compound, the TGI was > 100 µM in [7], 0.709 µM in [8] and > 100 µM in [9].

On to `O=C1C(Cl)=C(Cl)C(=O)N1C1C2CC3CC(C2)CC1C3` (centres undefined), for which the TGI is > 100 µM in assay [1]; > 100 µM in assay [2]; > 100 µM in assay [3]; > 100 µM in assay [4]; > 92.2 µM in assay [5]; > 100 µM in assay [10]. For the same compound, the TGI in assay [7], in assay [8] and in assay [9] was > 100 µM each time.

For `CCOP(=O)(OCC)C(NC(c1ccccc1)c1ccccc1)c1ccccc1` (centres undefined), the GI50 was 14.6 µM in [1]; 15 µM in [2]; 16.6 µM in assay [3]; 7.4 µM in [5]; 3.66 µM in assay [6]; 17.2 µM in assay [10]. Moreover, the GI50 is 16.8 µM in [7] and 14.9 µM in assay [9]. In addition, the TGI came out at 29.2 µM in [1]; 30 µM in assay [2]; 30.3 µM in [3]; 22.2 µM in assay [5]; 18.9 µM in assay [6]; 33.1 µM in [10]. The TGI was determined as 32.6 µM in assay [7] and 30.2 µM in [9].
